For the experiment, the system named is patient-derived Champions' human AML models. Description: Ex vivo AML PDX cell viability (Cell Titer Glo), 30 models. It is filed as cell-based. Conditions: for EC50: Homo sapiens. On the procedure: . Cell viability was assayed after treating PDX models with DMSO or HC-7366 for 6 days using a plate-based luminescence assay (Cell Titer Glo). […]
EC50 values were calculated to the bottom of the curve and are provided below. Viability curves are provided for the models CTG-2229 (FIG. 81), CTG-3680 (FIG. 82), CTG-3667 (FIG. 83), CTG-2456 (FIG. 84), CTG-2457 (FIG. 85), and CTG-2454 (FIG. 86).
(ATP-based viability assays read luminescence as a measure of living cells.)

Structures are written as SMILES. Bounds are passed on as bounds.

A word on the EC50: it is the midpoint of the concentration-response curve. `CNC(=O)c1ncn2cc(-c3c(F)ccc(NS(=O)(=O)c4cc(Cl)cnc4OC)c3F)ncc12` [HC-7366, 6-(3-((5-chloro-2-methoxypyridine)-3-sulfonamido)-2,6-difluorophenyl)-N-methylimidazo[1,5-a]pyrazine-1-carboxamide]: the “viability of primary AML PDX cells” value (4.57-10,000 nM, 6 days) is “potently reduced viability”. Further, the EC50 was 924 to 2250 nM (5 PDX models, resistant responders); < 100 nM (11 PDX models, sensitive responders); 100 to 350 nM (12 PDX models, moderate responders). For the same molecule, the response entry (two models) is “no response”.

(Values after patent US20250339426A1, “GCN2 MODULATOR FOR TREATING CANCER” (HIBERCELL, INC., priority 2022, published 2025).)
